According to US20240182444A1, “ANTI-VIRAL COMPOUNDS” (Aligos Therapeutics, Inc., priority 2022, published 2024):
Read-outs that look alike come from different tables or passages of the source.

Tests used:
SARS-Cov-2 3CLpro = biological target: T1, SARS-Cov-2 3CLpro (Severe acute respiratory syndrome coronavirus 2, UniProt P0DTD1); test: SARS-Cov-2 3CLpro protease assay (SAMDI-MS); format: biochemical
T1 construct: 3CLpro was added using a Multidrop Combi

[1] = Cytotoxicity in HeLa cells without OC43 virus; format: cell-based; settings: human, HeLa cells (uninfected), in parallel
Description: (§1) The human beta-coronavirus OC43 was purchased from ATCC (Manassas, VA) and propagated using HCT-8 human colorectal epithelial cells (ATCC). HeLa human cervical epithelial cells (ATCC) were used as susceptible host cell lines and were cultured using EMEM media, supplemented with 10% fetal bovine serum (FBS), 1% (v/v) penicillin/streptomycin (P/S), 1% (v/v) HEPES and 1% (v/v) cellgro Glutagro™ supplement (all Corning, Manassas, VA) at 37° C. For the OC43 antiviral assay, 1.5×10^4 HeLa cells per well were plated in 100 μL complete media in white 96-well plates with clear bottoms at 37° C. for up to 24 h to facilitate attachment and allow cells to recover from seeding stresses. Next day, the cell culture medium was removed. Serially diluted compounds in 100 μL assay media (EMEM, 2% FBS, 1% P/S, 1% cellgro Glutagro™ supplement, 1% HEPES) were added to the cells and incubated for 4 h at 37° C. in a humidified 5% CO2 incubator. 100 μL of OC43 virus stock was diluted to a concentration known to produce optimal cytopathic effect, inducing 80-90% reduction in cell viability. 96-well plates were incubated for 6 days at 33° C.; each plate contains uninfected control wells as well as virus-infected wells that were not treated with compound. Cytotoxicity plates without the addition of OC43 virus were carried out in parallel. At the end of the incubation period, 100 μL cell culture supernatant was replaced with 100 μL cell-titer-glo reagent (Promega, Madison, WI) and incubated for at least 10 min at rt prior to measuring luminescence. Luminescence was measured on a Perkin Elmer (Waltham, MA) Envision plate reader. Antiviral % inhibition was calculated as follows: [(Compound treated cells infected sample)−(no compound infected control)]/[(Uninfected control)−(no compound infected control)]*100; Using GraphPad (San Diego, CA) prism software version 8.3.1, the antiviral dose-response plot was generated as a sigmoidal fit, log(inhibitor) vs response-variable slope (four parameters) model and the EC50 was calculated which is the predicted compound concentration corresponding to a 50% inhibition of the viral cytopathic effect.
(§2) Table 2 indicates related EC50 and CC50 values for the tested compounds ‘A’ indicates an EC50<100 nM, ‘B’ indicates an EC50 of ≥100 nM and <1000 nM, ‘C’ indicates an EC50≥1000 nM and <10000 nM and ‘D’ indicates an EC50≥10000 nM and <100000 nM. For CC50, the values are reported in micromolar (M), ‘A’ indicates a CC50≥10000 nM and ‘B’ indicates a CC50≥1 μM and <10 μM.

[2] = system: human beta-coronavirus OC43; test: OC43 coronavirus antiviral assay in HeLa cells; format: cell-based; settings: Betacoronavirus 1, 144 h, OC43, 6 days at 33° C., cell-titer-glo
Description: as §1, §2

in vitro = settings: human
[3] = system: SARS-CoV-2 B.1.1.7 lineage; test: microbe, parasite or virus in culture; format: cell-based; settings: Severe acute respiratory syndrome coronavirus 2, 96 h; read-out: A549-dual_ACE2_TMPRSS2 (EC50)
[4] = 30 mins preincubation, duplex peptide substrates, read-out: SARS-Cov-2 (3CLpro IC50)

Row | SMILES | IC50 (SARS-Cov-2 3CLpro; [4]) | CC50 at 6 days [1] | EC50 [2] | CC50 (in vitro) | EC50 [3] | IC50 (SARS-Cov-2 3CLpro; bound given in table footnote, read-out: SARS-Cov-2 activity (footnote of Table 1))
1 | CC(C)(C)[C@H](NC(=O)C(F)(F)F)C(=O)N1C[C@H]2[C@@H]([C@H]1C(=O)NC(C#N)c1nc[nH]n1)[C@H]1C=C[C@@H]2C1 (stereo partly drawn) [Compound 4, (1R,2S,3S,6R,7S)—N-[cyano(1H-1,2,4-triazol-3-yl)methyl]-4-[(2S)-3,3-dimethyl-2-(2,2,2-trifluoroacetamido)butanoyl]-4-azatricyclo[5.2.1.0^{2,6}]dec-8-ene-3-carboxamide] | 0.2 to 2 µM | ≥ 10 µM | 1 to 10 µM | – | – | –
2 | CC(C)(C)[C@H](NC(=O)C(F)(F)F)C(=O)N1C[C@H]2[C@@H]([C@H]1C(=O)NC1(C#N)CCc3ccncc31)[C@H]1C=C[C@@H]2C1 (stereo partly drawn) [Compound 5, (1R,2S,3S,6R,7S)—N-{7-cyano-5H,6H-cyclopenta[c]pyridin-7-yl}-4-[(2S)-3,3-dimethyl-2-(2,2,2-trifluoroacetamido)butanoyl]-4-azatricyclo[5.2.1.0^{2,6}]dec-8-ene-3-carboxamide] | 0.2 to 2 µM | ≥ 10 µM | 1 to 10 µM | > 1 µM | ≥ 1 µM | –
3 | Cn1cc(C(C#N)NC(=O)[C@@H]2[C@@H]3[C@H](CN2C(=O)[C@@H](NC(=O)C(F)(F)F)C(C)(C)C)[C@@H]2C=C[C@H]3C2)cn1 (stereo partly drawn) [Compound 6, (1R,2S,3S,6R,7S)—N-[cyano(1-methylpyrazol-4-yl)methyl]-4-[(2S)-3,3-dimethyl-2-(2,2,2-trifluoroacetamido)butanoyl]-4-azatricyclo[5.2.1.0^{2,6}]dec-8-ene-3-carboxamide] | 0.02 to 0.2 µM | ≥ 10 µM | 1 to 10 µM | > 1 µM | 0.1 to 1 µM | –
4 | CC(C)(C)[C@H](NC(=O)C(F)(F)F)C(=O)N1C[C@@H]2[C@H]3C[C@@H]([C@@H]2[C@H]1C(=O)NC(C#N)c1cncc2ccccc12)[C@H](F)C3 (stereo partly drawn) [Compound 7, (1S,2R,3S,6R,7S,9R)—N-[cyano(isoquinolin-4-yl)methyl]-4-[(2S)-3,3-dimethyl-2-(2,2,2-trifluoroacetamido)butanoyl]-9-fluoro-4-azatricyclo[5.2.1.0^{2,6}]decane-3-carboxamide] | < 0.02 µM | ≥ 10 µM | < 0.1 µM | > 1 µM | < 0.1 µM | –
5 | N#CC(NC(=O)[C@@H]1[C@@H]2[C@H](CN1C(=O)c1cc3c(F)cc(F)cc3[nH]1)[C@@H]1C=C[C@H]2C1)c1cncc2ccccc12 (stereo partly drawn) [Compound 8, (1R,2S,3S,6R,7S)—N-[cyano(isoquinolin-4-yl)methyl]-4-(4,6-difluoro-1H-indole-2-carbonyl)-4-azatricyclo[5.2.1.0^{2,6}]dec-8-ene-3-carboxamide] | 0.02 to 0.2 µM | 1 to 10 µM | 0.1 to 1 µM | > 1 µM | 0.1 to 1 µM | –
6 | CC(C)(C)[C@H](NC(=O)C(F)(F)F)C(=O)N1C[C@@H]2[C@H]3C[C@@H]([C@@H]2[C@H]1C(=O)NC(C#N)c1cncc2cccnc12)[C@H](F)C3 (stereo partly drawn) [Compound 9, (1S,2R,3S,6R,7S,9R)—N-[cyano(1,6-naphthyridin-8-yl)methyl]-4-[(2S)-3,3-dimethyl-2-(2,2,2-trifluoroacetamido)butanoyl]-9-fluoro-4-azatricyclo[5.2.1.0^{2,6}]decane-3-carboxamide] | < 0.02 µM | ≥ 10 µM | < 0.1 µM | > 1 µM | < 0.1 µM | –
7 | CC(C)(C)[C@H](NC(=O)C(F)(F)F)C(=O)N1C[C@@H]2[C@H]3C[C@@H]([C@@H]2[C@H]1C(=O)NC(C#N)c1cncc(Cl)c1Cl)[C@H](F)C3 (stereo partly drawn) [Compound 10, (1S,2R,3S,6R,7S,9R)—N-[cyano(4,5-dichloropyridin-3-yl)methyl]-4-[(2S)-3,3-dimethyl-2-(2,2,2-trifluoroacetamido)butanoyl]-9-fluoro-4-azatricyclo[5.2.1.0^{2,6}]decane-3-carboxamide] | < 0.02 µM | ≥ 10 µM | 0.1 to 1 µM | > 1 µM | ≥ 1 µM | –
8 | CC(C)(C)[C@H](NC(=O)C(F)(F)F)C(=O)N1C[C@H]2[C@@H]([C@H]1C(=O)NC(C#N)c1cncc3ccccc13)C2(C)C (stereo partly drawn) [Compound 11, (1R,2S,5S)—N-[cyano(isoquinolin-4-yl)methyl]-3-[(2S)-3,3-dimethyl-2-(2,2,2-trifluoroacetamido)butanoyl]-6,6-dimethyl-3-azabicyclo[3.1.0]hexane-2-carboxamide] | – | ≥ 10 µM | < 0.1 µM | > 1 µM | < 0.1 µM | –
9 | N#CC(NC(=O)C1[C@@H]2[C@H](CN1C(=O)c1cnn(-c3ccccc3C(F)(F)F)c1)[C@H]1C[C@@H]2[C@H](F)C1)c1cncc2ccccc12 (stereo partly drawn) [Compound 12, (1S,2R,3S,6R,7S,9R)—N-[cyano(isoquinolin-4-yl)methyl]-9-fluoro-4-{1-[2-(trifluoromethyl)phenyl]pyrazole-4-carbonyl}-4-azatricyclo[5.2.1.0^{2,6}]decane-3-carboxamide] | 0.02 to 0.2 µM | – | – | > 1 µM | ≥ 1 µM | –
10 | CC(C)(C)[C@H](NC(=O)C(F)(F)F)C(=O)N1C[C@@H]2[C@@H]3CC([C@@H]2[C@H]1C(=O)NC(C#N)c1cnn(-c2ccccc2)c1)[C@H](F)C3 (stereo partly drawn) [Compound 13] | 0.2 to 2 µM | – | – | – | – | –
11 | CC(C)(C)[C@H](NC(=O)C(F)(F)F)C(=O)N1C[C@@H]2[C@@H]3C[C@H]([C@@H]2[C@H]1C(=O)NC(C#N)c1cnn(-c2ccccc2)c1)[C@H](F)C3 (stereo partly drawn) [Compound 13] | – | – | – | > 1 µM | ≥ 1 µM | –
12 | CC(C)(C)[C@H](NC(=O)C(F)(F)F)C(=O)N1C[C@@H]2[C@@H]3CC([C@@H]2[C@H]1C(=O)NC(C#N)c1cncc(-c2ccccc2)c1)[C@H](F)C3 (stereo partly drawn) [Compound 14] | < 0.02 µM | – | – | – | – | –
13 | CC(C)(C)[C@H](NC(=O)C(F)(F)F)C(=O)N1C[C@@H]2[C@@H]3C[C@H]([C@@H]2[C@H]1C(=O)NC(C#N)c1cncc(-c2ccccc2)c1)[C@H](F)C3 (stereo partly drawn) [Compound 14] | – | ≥ 10 µM | 10 to 100 µM | > 1 µM | 0.1 to 1 µM | –
14 | CC(C)(C)[C@H](NC(=O)C(F)(F)F)C(=O)N1C[C@H]2[C@@H]([C@H]1C(=O)NC(C#N)c1cnc3ccccc3c1)[C@H]1C=C[C@@H]2C1 (stereo partly drawn) [Compound 15] | < 0.02 µM | ≥ 10 µM | 0.1 to 1 µM | > 1 µM | 0.1 to 1 µM | –
15 | CC(C)(C)[C@H](NC(=O)C(F)(F)F)C(=O)N1C[C@H]2[C@@H]([C@H]1C(=O)NC(C#N)c1cccc3ccccc13)[C@H]1C=C[C@@H]2C1 (stereo partly drawn) [Compound 16] | 0.2 to 2 µM | – | – | > 1 µM | ≥ 1 µM | –
16 | CC(C)(C)[C@H](NC(=O)C(F)(F)F)C(=O)N1CC2(CC2)C[C@H]1C(=O)NC(C#N)c1cnn2ccccc12 (stereo partly drawn) [Compound 17, (6S)—N-(cyano(pyrazolo[1,5-a]pyridin-3-yl)methyl)-5-((S)-3,3-dimethyl-2-(2,2,2-trifluoroacetamido)butanoyl)-5-azaspiro[2.4]heptane-6-carboxamide] | 0.02 to 0.2 µM | ≥ 10 µM | 0.1 to 1 µM | > 1 µM | 0.1 to 1 µM | –
17 | Cc1ncc2ccccc2c1C(C#N)NC(=O)[C@@H]1[C@@H]2[C@H](CN1C(=O)[C@@H](NC(=O)C(F)(F)F)C(C)(C)C)[C@@H]1C=C[C@H]2C1 (stereo partly drawn) [Compound 21] | 2 to 20 µM | – | – | > 1 µM | ≥ 1 µM | –
18 | CC(C)(C)[C@H](NC(=O)C(F)(F)F)C(=O)N1C[C@@H]2[C@H]3C[C@@H]([C@@H]2[C@H]1C(=O)NC(C#N)c1cncn1-c1ccccc1)[C@H](F)C3 (stereo partly drawn) [Compound 23] | 0.02 to 0.2 µM | – | – | > 1 µM | ≥ 1 µM | > 0.5 µM
19 | C#CC(NC(=O)[C@@H]1[C@@H]2[C@H](CN1C(=O)[C@@H](NC(=O)C(F)(F)F)C(C)(C)C)[C@H]1C[C@@H]2[C@H](F)C1)c1cncc2ccccc12 (stereo partly drawn) [Compound 32, (1S,3aR,4S,6R,7S,7aR)-2-((S)-3,3-dimethyl-2-(2,2,2-trifluoroacetamido)butanoyl)-6-fluoro-N-(1-(isoquinolin-4-yl)prop-2-yn-1-yl)octahydro-1H-4,7-methanoisoindole-1-carboxamide] | 0.02 to 0.2 µM | – | – | – | – | –
